Results reported in patent US20240398762A1, “PHARMACEUTICAL COMPOSITION WITH ANALGESIC AND/OR ANTIPRURITIC FUNCTIONS AND APPLICATION THEREOF” (PENGEKIPHEN BIOTECH LIMITED COMPANY, priority 2022, published 2024).
Counter-ions that a name gives are not always drawn.

Tests used:
miR-96−/− mice = experiment: Mechanical pain threshold (Von Frey paw withdrawal threshold) of hind paws after intragastric administration; type: in vivo, mouse; details: 1 h after administration; for dose group exhibiting the best analgesic effect: three doses tested
Experimental: In order to screen an analgesic drug with excellent oral efficacy, analgesic effects of intragastric administration of Nav1.7 inhibitor and Nav1.8 inhibitor in eight 3-6-month-old miR-96^−/− mice ([…] BIOTECH LIMITED COMPANY) were tested.
Firstly, mechanical pain thresholds of hind paws of the miR-96^−/− mice were measured. The eight miR-96^−/− mice were placed on an iron frame and covered with a plexiglass cover. After 30 min, paw withdrawal thresholds (PWT) of the mice were measured using Von Frey (DanMic Global, CA, USA). […] 1 h after the intragastric administration of 30 μg/kg, 60 μg/kg or 90 μg/kg of PF-06305591, the mechanical pain thresholds of the hind paws of the miR-96″ mice were measured.

[1] = test system: subjects with painful diabetic peripheral neuropathy; details: McDonnell et al., Pain 2018; cited from earlier work

NC(=O)[C@@H]1CC[C@H](c2ccc(OCc3ccccc3F)cc2)N1 [CNV1014802]
analgesic effect versus solvent control group (miR-96−/− mice; 20 mg/kg intragastric): significant analgesic effects | analgesic effect versus solvent control group (miR-96−/− mice; 30 mg/kg intragastric): significant analgesic effects | analgesic effect versus solvent control group (miR-96−/− mice; 40 mg/kg intragastric): significant analgesic effects | dose group exhibiting the best analgesic effect (miR-96−/− mice; intragastric): 30 mg/kg

NCC1(CC(=O)O)CCCCC1 [Gabapentin]
effect on mechanical pain thresholds (miR-96−/− mice; 50 mg/kg intragastric): significantly improve the mechanical pain thresholds

CC(C)(N)c1ncc(-c2ccc(OC(F)(F)F)cc2)[nH]1 [PF-04885614, 1-methyl-1-[4-(4-trifluoromethoxy-phenyl)-1H-imidazol-2-yl]-ethylamine]
analgesic effect versus solvent control group (miR-96−/− mice; 180 μg/kg intragastric): significantly better than that of the solvent control group | analgesic effect versus solvent control group (miR-96−/− mice; 270 μg/kg intragastric): significantly better than that of the solvent control group | dose group exhibiting the best analgesic effect (miR-96−/− mice; intragastric): 0.18 mg/kg

Nc1n[nH]cc1-c1cc(Cl)ccc1Oc1cc(F)c(S(=O)(=O)Nc2cscn2)cc1Cl [PF-05089771, 4-[2-(3-amino-1H-pyrazol-4-yl)-4-chlorophenoxy]-5-chloro-2-fluoro-N-4-thiazolylbenzenesulfonamide tosylate]
analgesic effect in clinical studies [1]: does not exhibit desired analgesic effect | analgesic effect versus solvent control group (miR-96−/− mice; 4 mg/kg intragastric): significantly better than that of the solvent control group | analgesic effect versus solvent control group (miR-96−/− mice; 6 mg/kg intragastric): significantly better than that of the solvent control group | efficacy of the 6 mg/kg-dose group compared with the 4 mg/kg-dose group (miR-96−/− mice; intragastric): not better than that of the 4 mg/kg-dose group

C[C@@H](C(N)=O)[C@H](N)c1nc2cc(C(C)(C)C)ccc2[nH]1 [PF-06305591, (αR, βS)-β-Amino-6-(1,1-dimethylethyl)-α-methyl-1H-benzimidazole-2-propanamide dihydrate]
analgesic effect versus solvent control group (miR-96−/− mice; 60 μg/kg intragastric): significantly better than that of the solvent control group | analgesic effect versus solvent control group (miR-96−/− mice; 90 μg/kg intragastric): significantly better than that of the solvent control group | dose group exhibiting the best analgesic effect (miR-96−/− mice; intragastric): 0.06 mg/kg

N#Cc1cc(S(=O)(=O)Nc2ncns2)ccc1Oc1ccc(-c2cccc(C(F)(F)F)c2)cc1-c1ccnc(CNCCC2CCNCC2)c1 [PF-06456384, 3-cyano-4-[[3-[2-[[[2-(4-piperidinyl)ethyl]amino]methyl]-4-pyridinyl]-3′-(trifluoromethyl)[1,1′-biphenyl]-4-yl]oxy]-N-1,2,4-thiadiazol-5-yl-benzenesulfonamide trihydrochloride]
analgesic effect versus solvent control group (miR-96−/− mice; 1 mg/kg intragastric): significant analgesic effects | analgesic effect versus solvent control group (miR-96−/− mice; 2 mg/kg intragastric): significant analgesic effects | analgesic effect versus solvent control group (miR-96−/− mice; 3 mg/kg intragastric): significant analgesic effects | dose group exhibiting the best analgesic effect (miR-96−/− mice; intragastric): 2 mg/kg
